Measured values as given in article PMC2873862 (Journal of neuroimmunology, 2009).

What was measured:
Assay in all cases: radioligand displacement
Angiotensin AT1 = Angiotensin AT1 (Homo sapiens, UniProt P30556); assay type: binding
Neuropeptide Y1 = Neuropeptide Y1 (Homo sapiens, UniProt P25929); assay type: binding
Chemokine CCR1 = Chemokine CCR1 (Homo sapiens, UniProt P32246); assay type: binding
Serotonin 5-HT1A = Serotonin 5-HT1A (Homo sapiens, UniProt P08908); assay type: binding
Serotonin 5-HT1_5A = Serotonin 5-HT1_5A (Homo sapiens, UniProt P47898); assay type: binding
Adrenergic α1D = Adrenergic α1D (Homo sapiens, UniProt P25100); assay type: binding
Adrenergic α1D, sequence (P25100 whole entry): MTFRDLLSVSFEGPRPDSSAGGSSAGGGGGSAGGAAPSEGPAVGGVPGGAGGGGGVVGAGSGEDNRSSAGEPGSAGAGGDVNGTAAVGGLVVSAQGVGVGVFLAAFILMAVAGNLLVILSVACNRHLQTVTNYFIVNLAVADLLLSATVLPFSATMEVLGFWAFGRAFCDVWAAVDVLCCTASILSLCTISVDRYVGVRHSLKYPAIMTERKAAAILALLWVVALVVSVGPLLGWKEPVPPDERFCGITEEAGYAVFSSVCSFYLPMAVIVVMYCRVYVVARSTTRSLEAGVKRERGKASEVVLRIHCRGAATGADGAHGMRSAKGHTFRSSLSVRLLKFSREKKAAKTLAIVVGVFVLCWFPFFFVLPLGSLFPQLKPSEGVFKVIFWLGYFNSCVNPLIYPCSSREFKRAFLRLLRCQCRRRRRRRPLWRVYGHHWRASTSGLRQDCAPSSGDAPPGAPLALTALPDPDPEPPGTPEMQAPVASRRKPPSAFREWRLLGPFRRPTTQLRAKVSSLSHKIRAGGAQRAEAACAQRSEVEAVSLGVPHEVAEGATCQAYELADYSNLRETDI

Bradykinin B1 = Bradykinin B1 (Homo sapiens, UniProt P46663); assay type: binding; conditions: vs [3H]des Arg10 Kallidin; bound from single concentration […]
Bradykinin B1, sequence (P46663 whole entry): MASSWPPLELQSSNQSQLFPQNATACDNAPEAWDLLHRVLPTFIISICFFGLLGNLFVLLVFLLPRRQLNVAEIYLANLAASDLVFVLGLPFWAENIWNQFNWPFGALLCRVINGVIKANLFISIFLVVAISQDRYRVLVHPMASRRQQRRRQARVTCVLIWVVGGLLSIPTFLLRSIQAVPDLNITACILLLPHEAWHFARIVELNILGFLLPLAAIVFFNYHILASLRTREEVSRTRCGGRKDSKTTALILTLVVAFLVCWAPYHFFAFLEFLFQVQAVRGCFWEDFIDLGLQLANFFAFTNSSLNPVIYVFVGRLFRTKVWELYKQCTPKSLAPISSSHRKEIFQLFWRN

Cannabinoid CB2 = Cannabinoid CB2 (Homo sapiens, UniProt P34972); assay type: binding
Cannabinoid CB2, sequence (P34972 whole entry): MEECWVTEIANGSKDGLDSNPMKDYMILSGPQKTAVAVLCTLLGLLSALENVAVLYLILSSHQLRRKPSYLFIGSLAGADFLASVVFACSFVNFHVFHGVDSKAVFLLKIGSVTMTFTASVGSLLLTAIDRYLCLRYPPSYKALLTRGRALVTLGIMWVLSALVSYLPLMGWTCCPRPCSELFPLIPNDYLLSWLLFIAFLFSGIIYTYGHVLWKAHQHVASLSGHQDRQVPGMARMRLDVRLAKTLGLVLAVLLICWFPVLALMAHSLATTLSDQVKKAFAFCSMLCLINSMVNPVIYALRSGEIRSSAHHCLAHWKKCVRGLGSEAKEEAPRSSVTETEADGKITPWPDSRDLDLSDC

Endothelin ETA = Endothelin ETA (Homo sapiens, UniProt P25101); assay type: binding
Muscarinic M3 = Muscarinic M3 (Homo sapiens, UniProt P20309); assay type: binding
Tachykinin NK1 = Tachykinin NK1 (Homo sapiens, UniProt P25103); assay type: binding
Opiate σ(OP1) = Opiate σ(OP1) (Homo sapiens, UniProt P41143); assay type: binding
Histamine H1 = Histamine H1 (Homo sapiens, UniProt P35367); assay type: binding
Neurotensin NT1 = Neurotensin NT1 (Homo sapiens, UniProt P30989); assay type: binding
Adrenergic β1 = Adrenergic β1 (Homo sapiens, UniProt P08588); assay type: binding
Adrenergic β1, sequence (P08588 whole entry): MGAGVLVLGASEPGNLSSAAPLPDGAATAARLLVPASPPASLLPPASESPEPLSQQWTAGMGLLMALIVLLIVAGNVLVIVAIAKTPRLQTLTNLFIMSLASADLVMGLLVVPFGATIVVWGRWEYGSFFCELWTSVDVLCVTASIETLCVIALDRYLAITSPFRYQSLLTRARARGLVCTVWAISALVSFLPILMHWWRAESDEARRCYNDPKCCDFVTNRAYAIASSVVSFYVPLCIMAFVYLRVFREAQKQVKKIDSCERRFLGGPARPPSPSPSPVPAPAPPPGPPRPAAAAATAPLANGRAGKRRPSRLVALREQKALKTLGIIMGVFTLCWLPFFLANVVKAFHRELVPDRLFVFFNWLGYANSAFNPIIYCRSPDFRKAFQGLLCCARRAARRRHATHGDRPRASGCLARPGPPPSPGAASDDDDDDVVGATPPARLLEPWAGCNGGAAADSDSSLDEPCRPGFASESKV

Chemokine CCR5 = Chemokine CCR5 (Homo sapiens, UniProt P51681); assay type: binding
Estrogen ERβ = Estrogen ERβ (Homo sapiens, UniProt Q92731)
Dopamine D2L = Dopamine D2L (Homo sapiens, UniProt P14416); assay type: binding
Dopamine D2L, sequence (P14416 whole entry): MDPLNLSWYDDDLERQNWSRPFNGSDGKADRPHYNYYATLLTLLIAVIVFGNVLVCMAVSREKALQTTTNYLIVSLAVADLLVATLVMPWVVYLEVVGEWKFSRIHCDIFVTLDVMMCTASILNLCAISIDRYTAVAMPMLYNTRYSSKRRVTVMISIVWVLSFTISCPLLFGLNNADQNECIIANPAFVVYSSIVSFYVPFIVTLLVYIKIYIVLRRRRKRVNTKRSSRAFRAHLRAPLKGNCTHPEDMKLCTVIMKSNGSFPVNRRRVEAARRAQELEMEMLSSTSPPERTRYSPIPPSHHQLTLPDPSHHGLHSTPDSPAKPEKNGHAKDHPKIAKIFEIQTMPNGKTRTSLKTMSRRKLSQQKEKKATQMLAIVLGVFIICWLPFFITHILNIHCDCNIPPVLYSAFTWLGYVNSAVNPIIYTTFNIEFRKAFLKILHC

Dopamine D3 = Dopamine D3 (Homo sapiens, UniProt P35462); assay type: binding
Adenosine A1 = Adenosine A1 (Homo sapiens, UniProt P30542); assay type: binding
Adenosine A1, sequence (P30542 whole entry): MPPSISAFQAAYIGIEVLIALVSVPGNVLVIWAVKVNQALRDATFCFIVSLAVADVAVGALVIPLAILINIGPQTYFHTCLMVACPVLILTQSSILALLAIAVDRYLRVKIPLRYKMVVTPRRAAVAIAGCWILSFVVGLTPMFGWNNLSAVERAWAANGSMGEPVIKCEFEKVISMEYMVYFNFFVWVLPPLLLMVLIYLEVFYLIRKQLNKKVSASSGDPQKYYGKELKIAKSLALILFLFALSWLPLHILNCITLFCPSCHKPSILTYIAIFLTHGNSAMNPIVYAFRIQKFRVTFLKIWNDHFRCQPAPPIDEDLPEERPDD

Leukotriene CysLT1 = Leukotriene CysLT1 (Homo sapiens, UniProt Q9Y271); assay type: binding
Leukotriene CysLT1, sequence (Q9Y271 whole entry): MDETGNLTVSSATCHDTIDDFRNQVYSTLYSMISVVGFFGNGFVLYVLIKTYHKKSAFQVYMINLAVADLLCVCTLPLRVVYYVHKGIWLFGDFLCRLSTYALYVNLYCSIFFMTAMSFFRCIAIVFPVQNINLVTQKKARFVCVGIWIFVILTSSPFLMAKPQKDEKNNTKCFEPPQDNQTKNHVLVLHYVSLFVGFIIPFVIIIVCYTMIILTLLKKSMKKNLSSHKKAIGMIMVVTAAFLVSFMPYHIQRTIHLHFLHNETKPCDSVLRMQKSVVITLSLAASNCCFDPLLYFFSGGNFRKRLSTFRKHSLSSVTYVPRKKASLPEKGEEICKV

Muscarinic M1 = Muscarinic M1 (Homo sapiens, UniProt P11229); assay type: binding
Muscarinic M1, sequence (P11229 whole entry): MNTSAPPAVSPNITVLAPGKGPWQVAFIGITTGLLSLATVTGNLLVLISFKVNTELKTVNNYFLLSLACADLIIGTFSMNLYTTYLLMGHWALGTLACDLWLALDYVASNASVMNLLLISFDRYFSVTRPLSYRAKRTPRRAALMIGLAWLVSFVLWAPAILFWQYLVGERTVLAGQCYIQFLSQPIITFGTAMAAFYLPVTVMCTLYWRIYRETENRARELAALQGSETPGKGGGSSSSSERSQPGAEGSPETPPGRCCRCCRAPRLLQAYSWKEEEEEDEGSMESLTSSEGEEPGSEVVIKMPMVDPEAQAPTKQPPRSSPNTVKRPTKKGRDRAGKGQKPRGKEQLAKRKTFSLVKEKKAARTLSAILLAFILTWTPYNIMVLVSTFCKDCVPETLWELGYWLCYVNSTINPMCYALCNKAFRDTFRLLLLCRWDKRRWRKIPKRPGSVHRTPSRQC

Somatostatin sst1 = Somatostatin sst1 (Homo sapiens, UniProt P30872)

Measured: IC50

Neuropeptide Y1, sequence (P25929 whole entry): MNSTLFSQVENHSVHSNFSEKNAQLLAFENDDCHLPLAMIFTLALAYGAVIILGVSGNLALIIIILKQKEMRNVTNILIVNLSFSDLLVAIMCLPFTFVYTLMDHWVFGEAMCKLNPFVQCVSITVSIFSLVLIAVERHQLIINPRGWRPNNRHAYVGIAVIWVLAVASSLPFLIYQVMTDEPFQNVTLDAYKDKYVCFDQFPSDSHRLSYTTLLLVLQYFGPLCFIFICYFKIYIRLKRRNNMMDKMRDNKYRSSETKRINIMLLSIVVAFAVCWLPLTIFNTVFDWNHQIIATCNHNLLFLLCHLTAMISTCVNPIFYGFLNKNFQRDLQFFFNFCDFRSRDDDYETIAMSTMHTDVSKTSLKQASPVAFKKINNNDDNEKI
Angiotensin AT1, sequence (P30556 whole entry): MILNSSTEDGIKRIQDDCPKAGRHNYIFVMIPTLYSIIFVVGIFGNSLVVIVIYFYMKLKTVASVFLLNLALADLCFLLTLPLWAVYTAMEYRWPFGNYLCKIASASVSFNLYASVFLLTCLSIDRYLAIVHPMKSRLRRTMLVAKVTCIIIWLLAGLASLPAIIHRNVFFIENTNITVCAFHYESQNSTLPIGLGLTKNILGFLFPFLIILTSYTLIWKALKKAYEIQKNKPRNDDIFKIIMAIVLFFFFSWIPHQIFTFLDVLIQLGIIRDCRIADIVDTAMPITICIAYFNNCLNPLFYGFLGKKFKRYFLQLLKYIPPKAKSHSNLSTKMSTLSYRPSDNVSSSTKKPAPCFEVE
Serotonin 5-HT1A, sequence (P08908 whole entry): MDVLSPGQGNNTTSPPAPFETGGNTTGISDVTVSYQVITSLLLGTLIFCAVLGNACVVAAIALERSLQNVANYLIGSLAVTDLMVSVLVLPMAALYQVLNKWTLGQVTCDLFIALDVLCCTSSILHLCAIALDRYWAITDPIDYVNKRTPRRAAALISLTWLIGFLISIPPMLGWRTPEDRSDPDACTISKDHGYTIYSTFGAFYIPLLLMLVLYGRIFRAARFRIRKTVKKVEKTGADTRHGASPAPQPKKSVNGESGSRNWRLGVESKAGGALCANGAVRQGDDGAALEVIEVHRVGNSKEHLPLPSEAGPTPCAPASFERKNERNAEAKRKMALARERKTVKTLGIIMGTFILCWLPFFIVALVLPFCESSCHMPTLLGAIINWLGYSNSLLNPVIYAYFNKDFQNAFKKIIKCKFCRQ
Chemokine CCR1, sequence (P32246 whole entry): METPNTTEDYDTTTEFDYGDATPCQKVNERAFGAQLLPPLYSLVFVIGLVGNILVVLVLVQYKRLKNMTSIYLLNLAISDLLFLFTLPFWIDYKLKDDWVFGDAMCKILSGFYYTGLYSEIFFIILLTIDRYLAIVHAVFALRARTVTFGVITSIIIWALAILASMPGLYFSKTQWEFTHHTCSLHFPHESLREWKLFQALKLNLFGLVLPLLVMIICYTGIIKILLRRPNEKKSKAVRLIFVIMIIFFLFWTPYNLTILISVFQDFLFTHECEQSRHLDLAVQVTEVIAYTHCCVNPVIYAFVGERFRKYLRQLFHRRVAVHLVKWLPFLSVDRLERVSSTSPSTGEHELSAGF

CC(=O)c1ccc2c(c1)C1C=CCC1C(c1cc3c(cc1Br)OCO3)N2 (centres unmarked) [G-1, 1-[4-(6-bromobenzo[1,3]dioxol-5-yl)-3a,4,5,9b-tetrahydro-3H-cyclopenta[c]quinolin-8-yl]-ethanone]
> 10 µM: all assays above
